Assays:
Format in all cases: cell-based, murine
Ba/F3 EGFR Wild-type = Ba/F3 EGFR Wild-type (Homo sapiens, UniProt P00533); test: CellTiter-Glo cell viability, Ba/F3 EGFR wild-type cells; settings: 72 hours, read-out: Ba/F3 EGFR mutant cell (IC50, nM) WT
Protocol: (§1) In order to evaluate an inhibitory ability on wild-type Ba/F3 EGFR and Ba/F3 EGFR mutations in Ba/F3 cell lines by the compounds of Formula 1, the experiment was carried out as described below.
(§2) The measurement of activities on Ba/F3 cells harboring wild-type EGFR and EGFR mutants by the compounds of the present invention were determined utilizing the CELLTITER-GLO™ system from Promega, as follows. The CELLTITER-GLO™ assay is a method for measuring the ATP present in cells to determine the cell viability. Ba/F3 EGFR wild-type and Ba/F3 EGFR L858R/C797S (L/C), Ba/F3 EGFR L858R/T790M/C797S (L/T/C), Ba/F3 EGFR Del19/T790M (D/T), Ba/F3 EGFR Del19/C797S (D/C), Ba/F3 EGFR Del19/T790M/C797S (D/T/C) mutant cell lines were maintained in RPMI1640, containing […], 1% penicillin-streptomycin, […] puromycin. Cells were grown in a humidified incubator at 37° C. with […].
(§3) The analysis of an EGFR inhibitory activity by the compounds was carried out in accordance with the analysis reaction recipe below.
(§4) 2500 cells/90 μL were seeded in 96 well cell culture plate, and after 24 hours, treated with the compounds represented by Formula 1 in concentrations of 0, 0.3, 0.9, 2.7, 8.2, 24.7, 74.1, 222.2, 666.7, 2000 (nM). After the reaction of 72 hours, the plate was incubated for 30 minutes at ambient temperature, and then, was further treated with 100 μL of the CELLTITER-GLO™ reagent and was shaken for 10 minutes at ambient temperature. Finally, measurement of the luminescence values were obtained using the SPECTRAMAX™ iD3 (Molecular Devices), and the IC50 values of the compound were analyzed using the GraphPad Prism program (version 9.0.2, GraphPad Software, Inc.).

[1] = target: Ba/F3 EGFR L858R/C797S mutants (Homo sapiens, UniProt P00533, C797S/L858R, cells depend on it); test: CellTiter-Glo cell viability, Ba/F3 EGFR L858R/C797S cells; settings: 72 hours, read-out: Ba/F3 EGFR mutant cell (IC50, nM) L/C
Protocol: as §1, §2, §3, §4

[2] = target: Ba/F3 EGFR L858R/T790M/C797S mutants (Homo sapiens, UniProt P00533, T790M/C797S/L858R, cells depend on it); test: CellTiter-Glo cell viability, Ba/F3 EGFR L858R/T790M/C797S cells; settings: 72 hours, read-out: Ba/F3 EGFR mutant cell (IC50, nM) L/T/C
Protocol: as §1, §2, §3, §4

[3] = target: Ba/F3 EGFR Del19/T790M mutants (Homo sapiens, UniProt P00533, T790M, cells depend on it, form not given); test: CellTiter-Glo cell viability, Ba/F3 EGFR Del19/T790M cells; settings: 72 hours, read-out: Ba/F3 EGFR mutant cell (IC50, nM) D/T
Protocol: as §1, §2, §3, §4

[4] = target: Ba/F3 EGFR Del19/C797S mutants (Homo sapiens, UniProt P00533, C797S, cells depend on it, form not given); test: CellTiter-Glo cell viability, Ba/F3 EGFR Del19/C797S cells; settings: 72 hours, read-out: Ba/F3 EGFR mutant cell (IC50, nM) D/C
Protocol: as §1, §2, §3, §4

[5] = target: Ba/F3 EGFR Del19/T790M/C797S mutants (Homo sapiens, UniProt P00533, T790M/C797S, cells depend on it, form not given); test: CellTiter-Glo cell viability, Ba/F3 EGFR Del19/T790M/C797S cells; settings: 72 hours, read-out: Ba/F3 EGFR mutant cell (IC50, nM) D/T/C
Protocol: as §1, §2, §3, §4

Sequence of Ba/F3 EGFR L858R/C797S mutants (P00533 whole entry C797S/L858R): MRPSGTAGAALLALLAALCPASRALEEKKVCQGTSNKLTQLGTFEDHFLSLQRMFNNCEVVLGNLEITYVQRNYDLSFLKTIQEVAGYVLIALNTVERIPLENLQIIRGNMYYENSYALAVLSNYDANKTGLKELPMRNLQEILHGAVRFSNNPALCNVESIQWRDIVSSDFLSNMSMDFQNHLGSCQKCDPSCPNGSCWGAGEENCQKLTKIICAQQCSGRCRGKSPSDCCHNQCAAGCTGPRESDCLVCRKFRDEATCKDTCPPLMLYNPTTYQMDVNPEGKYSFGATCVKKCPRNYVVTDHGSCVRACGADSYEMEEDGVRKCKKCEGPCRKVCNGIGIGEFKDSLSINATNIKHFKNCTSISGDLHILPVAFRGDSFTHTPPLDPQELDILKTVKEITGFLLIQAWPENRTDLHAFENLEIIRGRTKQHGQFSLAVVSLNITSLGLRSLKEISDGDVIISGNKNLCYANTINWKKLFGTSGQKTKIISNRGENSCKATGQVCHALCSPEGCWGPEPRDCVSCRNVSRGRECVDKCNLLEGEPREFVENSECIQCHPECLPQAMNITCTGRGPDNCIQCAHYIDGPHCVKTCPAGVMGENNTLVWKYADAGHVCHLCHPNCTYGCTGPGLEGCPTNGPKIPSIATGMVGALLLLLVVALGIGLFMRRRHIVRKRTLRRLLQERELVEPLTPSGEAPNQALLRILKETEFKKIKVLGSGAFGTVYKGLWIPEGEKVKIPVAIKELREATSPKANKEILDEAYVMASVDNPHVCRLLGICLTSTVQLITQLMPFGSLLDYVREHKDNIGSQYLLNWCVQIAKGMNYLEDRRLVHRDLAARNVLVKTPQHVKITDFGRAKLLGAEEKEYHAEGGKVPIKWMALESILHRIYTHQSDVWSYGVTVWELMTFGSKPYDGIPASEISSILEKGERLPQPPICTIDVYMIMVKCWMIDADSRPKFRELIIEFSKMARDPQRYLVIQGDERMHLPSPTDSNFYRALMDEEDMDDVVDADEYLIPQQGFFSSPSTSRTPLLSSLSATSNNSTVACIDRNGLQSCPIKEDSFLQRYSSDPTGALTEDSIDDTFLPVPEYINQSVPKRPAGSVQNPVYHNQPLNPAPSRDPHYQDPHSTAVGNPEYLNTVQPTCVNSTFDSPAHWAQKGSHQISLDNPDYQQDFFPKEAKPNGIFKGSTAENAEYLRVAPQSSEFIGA
Sequence of Ba/F3 EGFR Del19/T790M/C797S mutants (P00533 with tags, fused parts or gaps DEL746-750/T790M/C797S, form open): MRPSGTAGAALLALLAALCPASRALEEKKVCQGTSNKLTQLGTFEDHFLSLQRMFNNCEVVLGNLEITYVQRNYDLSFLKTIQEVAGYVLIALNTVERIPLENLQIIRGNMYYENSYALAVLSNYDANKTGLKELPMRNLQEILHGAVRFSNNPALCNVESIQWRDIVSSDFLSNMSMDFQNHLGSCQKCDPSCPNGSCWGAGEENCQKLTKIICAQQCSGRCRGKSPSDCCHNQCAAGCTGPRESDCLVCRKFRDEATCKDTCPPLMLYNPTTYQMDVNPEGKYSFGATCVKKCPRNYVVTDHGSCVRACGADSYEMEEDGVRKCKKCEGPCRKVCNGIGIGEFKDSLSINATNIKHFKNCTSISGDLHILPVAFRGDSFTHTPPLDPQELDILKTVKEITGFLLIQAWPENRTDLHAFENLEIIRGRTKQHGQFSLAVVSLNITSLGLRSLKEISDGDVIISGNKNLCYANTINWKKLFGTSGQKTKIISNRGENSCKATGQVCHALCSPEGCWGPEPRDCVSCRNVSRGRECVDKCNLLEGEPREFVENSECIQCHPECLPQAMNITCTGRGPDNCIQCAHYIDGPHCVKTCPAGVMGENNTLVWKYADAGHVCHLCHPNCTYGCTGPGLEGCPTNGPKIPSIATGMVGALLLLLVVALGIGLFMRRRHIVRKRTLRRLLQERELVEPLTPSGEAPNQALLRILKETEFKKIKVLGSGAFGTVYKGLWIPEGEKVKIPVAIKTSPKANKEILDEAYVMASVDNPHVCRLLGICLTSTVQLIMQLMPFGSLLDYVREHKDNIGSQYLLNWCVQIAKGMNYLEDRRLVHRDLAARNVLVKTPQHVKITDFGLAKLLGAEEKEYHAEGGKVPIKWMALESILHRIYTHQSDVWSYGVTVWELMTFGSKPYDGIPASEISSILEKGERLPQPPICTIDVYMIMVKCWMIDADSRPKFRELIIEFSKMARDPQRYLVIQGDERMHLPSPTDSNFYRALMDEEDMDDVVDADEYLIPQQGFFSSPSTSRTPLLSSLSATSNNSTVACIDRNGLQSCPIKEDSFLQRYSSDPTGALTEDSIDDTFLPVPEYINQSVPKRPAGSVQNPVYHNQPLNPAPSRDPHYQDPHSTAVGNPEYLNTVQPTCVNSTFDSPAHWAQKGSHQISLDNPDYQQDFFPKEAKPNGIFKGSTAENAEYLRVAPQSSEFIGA
Sequence of Ba/F3 EGFR Wild-type (P00533 whole entry, change not shown): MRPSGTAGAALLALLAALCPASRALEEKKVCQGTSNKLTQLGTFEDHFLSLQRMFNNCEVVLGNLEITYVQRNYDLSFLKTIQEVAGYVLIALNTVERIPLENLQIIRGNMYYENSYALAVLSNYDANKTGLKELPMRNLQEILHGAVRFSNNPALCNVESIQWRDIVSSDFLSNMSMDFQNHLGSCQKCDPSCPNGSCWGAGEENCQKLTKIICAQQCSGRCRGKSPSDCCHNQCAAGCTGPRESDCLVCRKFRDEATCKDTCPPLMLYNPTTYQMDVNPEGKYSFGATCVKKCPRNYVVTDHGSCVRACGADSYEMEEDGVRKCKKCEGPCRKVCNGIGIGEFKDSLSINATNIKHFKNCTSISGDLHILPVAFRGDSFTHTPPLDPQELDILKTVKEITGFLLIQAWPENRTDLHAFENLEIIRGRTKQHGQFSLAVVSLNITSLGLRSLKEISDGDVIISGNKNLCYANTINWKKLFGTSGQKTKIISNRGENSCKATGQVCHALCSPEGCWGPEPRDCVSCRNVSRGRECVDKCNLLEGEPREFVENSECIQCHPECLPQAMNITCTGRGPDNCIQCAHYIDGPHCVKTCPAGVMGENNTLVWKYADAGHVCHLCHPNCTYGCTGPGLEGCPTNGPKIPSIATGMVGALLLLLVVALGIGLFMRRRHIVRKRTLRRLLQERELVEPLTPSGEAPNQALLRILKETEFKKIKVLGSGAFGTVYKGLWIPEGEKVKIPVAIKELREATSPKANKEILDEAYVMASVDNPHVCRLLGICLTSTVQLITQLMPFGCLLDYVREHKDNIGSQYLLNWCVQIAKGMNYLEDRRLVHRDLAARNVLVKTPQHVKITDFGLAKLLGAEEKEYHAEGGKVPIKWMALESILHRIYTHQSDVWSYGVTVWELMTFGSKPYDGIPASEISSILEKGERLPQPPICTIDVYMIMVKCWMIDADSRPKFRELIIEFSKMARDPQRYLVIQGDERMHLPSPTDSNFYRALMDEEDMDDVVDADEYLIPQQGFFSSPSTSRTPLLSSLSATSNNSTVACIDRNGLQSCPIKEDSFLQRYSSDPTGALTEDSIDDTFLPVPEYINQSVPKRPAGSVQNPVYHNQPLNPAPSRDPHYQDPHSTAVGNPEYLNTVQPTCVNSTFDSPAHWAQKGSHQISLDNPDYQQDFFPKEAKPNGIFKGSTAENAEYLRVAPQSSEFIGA
Sequence of Ba/F3 EGFR Del19/C797S mutants (P00533 with tags, fused parts or gaps DEL746-750/C797S, form open): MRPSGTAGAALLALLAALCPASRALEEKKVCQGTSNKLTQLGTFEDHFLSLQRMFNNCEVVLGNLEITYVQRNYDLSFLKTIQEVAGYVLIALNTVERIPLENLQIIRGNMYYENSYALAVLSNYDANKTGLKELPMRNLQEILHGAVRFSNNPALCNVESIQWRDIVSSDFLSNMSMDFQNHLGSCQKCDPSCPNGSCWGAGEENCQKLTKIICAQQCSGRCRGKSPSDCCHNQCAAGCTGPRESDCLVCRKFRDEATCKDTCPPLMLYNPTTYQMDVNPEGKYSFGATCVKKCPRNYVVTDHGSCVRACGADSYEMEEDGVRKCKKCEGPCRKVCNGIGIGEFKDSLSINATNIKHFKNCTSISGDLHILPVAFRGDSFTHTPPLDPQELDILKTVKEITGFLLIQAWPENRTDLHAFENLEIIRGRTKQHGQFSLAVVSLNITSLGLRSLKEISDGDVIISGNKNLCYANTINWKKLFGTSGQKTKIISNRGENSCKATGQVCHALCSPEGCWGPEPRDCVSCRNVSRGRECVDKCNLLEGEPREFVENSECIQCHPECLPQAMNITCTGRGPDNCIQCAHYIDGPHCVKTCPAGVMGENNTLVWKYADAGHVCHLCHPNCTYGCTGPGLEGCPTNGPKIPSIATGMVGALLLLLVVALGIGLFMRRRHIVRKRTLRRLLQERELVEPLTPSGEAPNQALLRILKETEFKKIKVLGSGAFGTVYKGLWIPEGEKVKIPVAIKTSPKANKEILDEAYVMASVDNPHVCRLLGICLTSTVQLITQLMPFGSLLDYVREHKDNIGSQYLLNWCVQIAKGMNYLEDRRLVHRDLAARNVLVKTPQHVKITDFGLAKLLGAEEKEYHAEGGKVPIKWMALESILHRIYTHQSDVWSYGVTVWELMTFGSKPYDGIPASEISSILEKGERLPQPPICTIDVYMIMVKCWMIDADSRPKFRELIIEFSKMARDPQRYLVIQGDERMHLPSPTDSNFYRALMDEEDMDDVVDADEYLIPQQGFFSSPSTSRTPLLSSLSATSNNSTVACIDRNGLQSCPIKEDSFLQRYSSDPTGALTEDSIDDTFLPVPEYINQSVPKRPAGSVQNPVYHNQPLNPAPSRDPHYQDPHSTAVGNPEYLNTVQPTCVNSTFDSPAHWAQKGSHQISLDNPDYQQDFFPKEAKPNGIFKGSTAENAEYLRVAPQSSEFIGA

SMILES	GI50 (Ba/F3 EGFR Wild-type) [nM]	GI50 [1] [nM]	GI50 [2] [nM]	GI50 [3] [nM]	GI50 [4] [nM]	GI50 [5] [nM]
CCc1cc(Nc2ncc(Cl)c(Nc3ccc4nccnc4c3NS(C)(=O)=O)n2)c(OC)cc1N1CCC(N2CCN(C)CC2)CC1 [Example A2, N-(6-((5-chloro-2-((5-ethyl-2-methoxy-4-(4-(4-methylpiperazin-1-yl)piperidin-1-yl)phenyl)amino)pyrimidin-4-yl)amino)quinoxalin-5-yl)methanesulfonamide]	381	26	9	4	12	4
COc1ccc(Nc2nc(Nc3cc(C)c(N4CCC(N5CCCC5)CC4)cc3OC)ncc2Cl)c(NS(C)(=O)=O)c1 [Example C11, N-(2-((5-chloro-2-((2-methoxy-5-methyl-4-(4-(pyrrolidin-1-yl)piperidin-1-yl)phenyl)amino)pyrimidin-4-yl)amino)-5-methoxyphenyl)methanesulfonamide]	458	45	39	5	6	9
COc1cc(N2CC[C@H](N3CCN(C)CC3)[C@H](F)C2)ccc1Nc1ncc(Cl)c(Nc2ccc3nccnc3c2NS(C)(=O)=O)n1 [Example A35, N-(6-((5-chloro-2-((4-((3R,4S)-3-fluoro-4-(4-methylpiperazin-1-yl)piperidin-1-yl)-2-methoxyphenyl)amino)pyrimidin-4-yl)amino)quinoxalin-5-yl)methane sulfonamide]	576	335	659	219	145	272
COc1cc(N2CCC(N3CCN(C)CC3)CC2)c(F)cc1Nc1ncc(Br)c(Nc2ccc3nccnc3c2NS(C)(=O)=O)n1 [Example A27, N-(6-((5-bromo-2-((5-fluoro-2-methoxy-4-(4-(4-methylpiperazin-1-yl)piperidin-1-yl)phenyl)amino)pyrimidin-4-yl)amino)quinoxalin-5-yl)methanesulfonamide]	183	184	65	27	101	192
CCCc1cc(Nc2ncc(Br)c(Nc3ccc4nccnc4c3N(C)S(C)(=O)=O)n2)c(OC)cc1N1CCC(N(C)C)CC1 [Example B24, N-(6-((5-bromo-2-((4-(4-(dimethylamino)piperidin-1-yl)-2-methoxy-5-propylphenyl)amino)pyrimidin-4-yl)amino)quinoxalin-5-yl)-N-methylmethanesulfonamide]	908	185	65	23	17	20
CCc1cc(Nc2ncc(Cl)c(Nc3ccc4nccnc4c3NS(C)(=O)=O)n2)c(OC)cc1N1CCC(N2CCOCC2)CC1 [Example A29, N-(6-((5-chloro-2-((5-ethyl-2-methoxy-4-(4-morpholinopiperidin-1-yl)phenyl)amino)pyrimidin-4-yl)amino)quinoxalin-5-yl)methanesulfonamide]	200	79	25	13	27	69
CCc1cc(Nc2ncc(Cl)c(Nc3ccc4nccnc4c3NS(C)(=O)=O)n2)c(OC)cc1N1CC2CCC1CN2C(C)C (stereo not shown) [Example B25, N-(6-((5-chloro-2-((5-ethyl-4-(5-isopropyl-2,5-diazabicyclo[2.2.2]octan-2-yl)-2-methoxyphenyl)amino)pyrimidin-4-yl)amino) 105 quinoxaline-5-yl)methanesulfonamide]	829	93	83	26	16	22
COc1cc(N2CCC(N3CCN(C)C4(CC4)C3)CC2)ccc1Nc1ncc(Cl)c(Nc2ccc3nccnc3c2NS(C)(=O)=O)n1 [Example A15, N-(6-((5-chloro-2-((2-methoxy-4-(4-(4-methyl-4,7-diazaspiro[2.5]octan-7-yl)piperidin-1-yl)phenyl)amino)pyrimidin-4-yl)amino)quinoxalin-5-yl)methanesulfonamide]	811	423	473	156	295	211
CCc1cc(Nc2ncc(Br)c(Nc3ccc4nccnc4c3N(C)S(C)(=O)=O)n2)c(OC)cc1N1CCC(N(C)C)CC1 [Example B14, N-(6-((5-bromo-2-((4-(4-(dimethylamino)piperidin-1-yl)-5-ethyl-2-methoxyphenyl)amino)pyrimidin-4-yl)amino)quinoxalin-5-yl)-N-methylmethanesulfonamide]	427	41	23	3	6	8
COc1cc(OC2CNC2)ccc1Nc1ncc(Cl)c(Nc2ccc3nccnc3c2NS(C)(=O)=O)n1 [Example D6, N-(6-((2-((4-(azetidin-3-yloxy)-2-methoxyphenyl)amino)-5-chloropyrimidin-4-yl)amino)quinoxalin-5-yl)methanesulfonamide]	> 2000	1130	1080	800	706	592
COc1cc(N2CCC(N3CCN(C)CC3)CC2)ccc1Nc1ncc(Cl)c(Nc2ccc3scnc3c2NS(C)(=O)=O)n1 [Example C8, N-(5-((5-chloro-2-((2-methoxy-4-(4-(4-methylpiperazin-1-yl)piperidin-1-yl)phenyl)amino)pyrimidin-4-yl)amino)benzo[d]thiazol-4-yl)methanesulfonamide]	804	316	308	94	210	170
COc1cc(N2CCC(N(C)C)CC2)c(C)cc1Nc1ncc(Br)c(Nc2cccc(OC)c2NS(C)(=O)=O)n1 [Example C3, N-(2-((5-bromo-2-((4-(4-(dimethylamino)piperidin-1-yl)-2-methoxy-5-methylphenyl)amino)pyrimidin-4-yl)amino)-6-methoxyphenyl)methanesulfonamide]	288	113	23	17	60	92
CCc1cc(Nc2ncc(Cl)c(Nc3ccc4nccnc4c3N(C)S(C)(=O)=O)n2)c(OC)cc1N1CCC(N2CCCC2)CC1 [Example A43, N-(6-((5-chloro-2-((5-ethyl-2-methoxy-4-(4-(pyrrolidin-1-yl)piperidin-1-yl)phenyl)amino)pyrimidin-4-yl)amino)quinoxalin-5-yl)-N-methylmethanesulfonamide]	507	28	35	8	6	5
CCc1cc(Nc2ncc(Cl)c(Nc3ccc4nccnc4c3N(C)S(C)(=O)=O)n2)c(OC)cc1N1CCC(N2CCN(C)CC2)CC1 [Example A38, N-(6-((5-chloro-2-((5-ethyl-2-methoxy-4-(4-(4-methylpiperazin-1-yl)piperidin-1-yl)phenyl)amino)pyrimidin-4-yl)amino)quinoxalin-5-yl)-N-methylmethanesulfonamide]	347	18	33	5		5
COc1cc(N2CC3(CNC3)C2)ccc1Nc1ncc(Cl)c(Nc2ccc3nccnc3c2NS(C)(=O)=O)n1 [Example D7, N-(6-((5-chloro-2-((2-methoxy-4-(2,6-diazaspiro[3.3]heptan-2-yl)phenyl)amino)pyrimidin-4-yl)amino)quinoxalin-5-yl)methanesulfonamide]	> 2000	> 2000	> 2000	> 2000		> 2000

From patent US12297194B2, “N2-phenylpyrimidine-2,4-diamine compounds, and preparation methods and methods of use thereof” (BRIDGE BIOTHERAPEUTICS, INC., priority 2021, dated 2025)
